# According to PMC6563033, “Purification and Characterization of Antioxidant Peptides Derived from Protein Hydrolysate of the Marine Bivalve Mollusk Tergillarca granosa” (Marine Drugs, 2019):
# Like-named read-outs stand apart in the source and are kept apart here. Residues, ends and D or L forms follow the SMILES beside them. No end group written: not given here.
# Columns and labels:
# [1] = Simulated GI digestion (pepsin + pancreatin), read out as hydroxyl radical scavenging EC50; format: in vitro ADME; details: two-stage digestion: pepsin 1.0 h + pancreatin 2.0 h; judged from hydroxyl radical EC50
# Method: First, 1.0 mL of a 1.87 mM 1,10-phenanthroline solution and 2.0 mL of the sample were added to a screw-capped tube and mixed. Then, 1.0 mL of a FeSO4·7H2O solution (1.87 mM) was added to the mixture. The reaction was initiated by adding 1.0 mL of H2O2 (0.03%, v/v). After being incubated at 37 °C for 60 min in a water bath, the absorbance of the reaction mixture was measured at 536 nm against a reagent blank. The reaction mixture without any antioxidant was used as the negative control, and a mixture without H2O2 was used as the blank. The hydroxyl radical scavenging activity was calculated using the following formula: Hydroxyl radical scavenging activity (%) = [(As − An)/(Ab − An)] × 100% (3) where As, An, and Ab are the absorbance values determined at 536 nm of the sample, the negative control, and the blank after the reaction, respectively.
# Stability of TGP3 and TGP4 were measured according to the previous method with minor modifications. A temperature-controlled water bath at 25, 37, 60, 80, or 100 °C for 0.5 h was used to measure thermostability of TGP3 and TGP4. Effects of pH treatments (pH 3, 5, 7, 9, or 11) of sample solutions incubated at 25 °C for 2.5 h were assessed to analyze the pH stability of TGP3 and TGP4. […] Hydroxyl radical scavenging activities (EC50 value) of the treated TGP3 and TGP4 were measured according to the previous methods.
# [2] = cited from earlier work
# [3] = cited from earlier work; for EC50 (half elimination ratio) on ABTS cation radical: APs from blue-spotted stingray
# Description: Bioactive peptides (BPs), which in general range from 2 to 20 amino acids in size, are fragments of proteins and become active when released during enzymatic hydrolysis, gastrointestinal transit, and fermentation. […] Furthermore, EC50 values of TGP3 and TGP4 were lower than those of APs from protein hydrolysates of skip ...
# [4] = cited from earlier work; for Change of activity during heat treatment: heat 25–100 °C; for Change of activity during pH treatment: pH 3–11
# Description: Heat treatment is a common method of food processing and APs are helpful to lengthen the food shelf-life if they can keep their activity after heating. Peptides with large-scale pH stability can be incorporated into diverse liquid products and keep their bioactivity. Therefore, thermal and pH stability of peptides are important indexes for their application in functional products, and characterization of those properties can help to design their potential processing parameters. ATSHH from protein hydrolysate of sandfish (Arctoscopus japonicus) partially lost its DPPH radical scaven ...
# [5] = cited from earlier work; remark: listed apart in the source
# Description: EC50 values of TGP3 and TGP4 were lower than those of APs from protein ...
# [6] = cited from earlier work; remark: listed apart in the source
# Method: Defatted muscle of blood cockle was hydrolyzed under a two-enzyme system (Alcalase treatment for 1.5 h following Neutrase treatment for 1.5 h), and the degree of hydrolysis (DH) and yield of the resulted hydrolysate (referred to as TGH) were 19.32 ± 1.37% and 9.62 ± 0.86% (on the basis of defatted muscle), respectively. […] In addition, the EC50 values of TGP3 and TGP4 were lower than those o ...
# [7] = APs from spotless smoothhound (Mustelus griseus) muscle
# [8] = APs from miiuy croaker swim bladder
# [9] = APs from croceine croaker scale
molecule,measurement,setting,value
"N[C@@H](Cc1c[nH]c2ccccc12)C(=O)N1CCC[C@H]1C(=O)N1CCC[C@H]1C(=O)N[C@@H](CC(=O)O)C(=O)O [TGP-4, Trp-Pro-Pro-Asp] (H-WPPD-OH)",Susceptibility to GI digestive enzymes,[1],partially susceptible to be degradated by GI digestive enzymes
AGPM [literature AP from skipjack tuna bone],EC50 on superoxide anion radical,[2]; APs from skipjack tuna bone,1680 µg/mL
same,EC50 on ABTS cation radical,[3]; APs from skipjack tuna bone,1480 µg/mL
ATSHH [literature peptide from protein hydrolysate of sandfish (Arctoscopus japonicus)],Retention of activity after pH treatment,[4]; basic (pH 10–12) and acidic (pH 2) conditions,moderate losses of activity
same,Retention of DPPH radical scavenging activity after heating,[4]; incubated at 50–90 °C,partially lost its DPPH radical scavenging activity
ELLI [literature AP from spotless smoothhound muscle],EC50 on hydroxyl radical,[5]; [7],117.3 µg/mL
EWPAQ [literature AP from monkfish muscle],EC50 on hydroxyl radical,[5]; APs from monkfish muscle,269 µg/mL
FIGP [literature AP from bluefin leatherjacket skin],EC50 on DPPH radical,[6]; AP from bluefin leatherjacket skin,118 µg/mL
FIMGPY [literature AP from skate cartilage],EC50 on ABTS cation radical,[3]; APs from skate cartilage,1040 µg/mL
FLHRP [literature AP from monkfish muscle],EC50 on superoxide anion radical,[2]; APs from monkfish muscle,101 µg/mL
same,EC50 on hydroxyl radical,[5]; APs from monkfish muscle,114 µg/mL
FLNEFLHV [literature AP from salmon],EC50 on ABTS cation radical,[3]; AP from salmon,1548 µg/mL
FMPLH [literature AP from miiuy croaker muscle],EC50 on superoxide anion radical,[2]; APs from miiuy croaker muscle,150 µg/mL
same,EC50 on hydroxyl radical,[5]; APs from miiuy croaker muscle,800 µg/mL
same,EC50 on DPPH radical,[6]; APs from miiuy croaker muscle,480 µg/mL
FPYLRH [literature AP from miiuy croaker swim bladder],EC50 on superoxide anion radical,[2]; [8],340 µg/mL
same,EC50 on hydroxyl radical,[5]; [8],680 µg/mL
FSGLR [literature AP from miiuy croaker swim bladder],EC50 on superoxide anion radical,[2]; [8],3350 µg/mL
FTGMD [literature AP from miiuy croaker swim bladder],EC50 on superoxide anion radical,[2]; [8],3040 µg/mL
FWKVV [literature AP from miiuy croaker muscle],EC50 on superoxide anion radical,[2]; APs from miiuy croaker muscle,290 µg/mL
same,EC50 on hydroxyl radical,[5]; APs from miiuy croaker muscle,970 µg/mL
same,EC50 on DPPH radical,[6]; APs from miiuy croaker muscle,850 µg/mL
GADIVA [literature AP from skipjack tuna bone],EC50 on hydroxyl radical,[5]; APs from skipjack tuna bone,250 µg/mL
same,EC50 on DPPH radical,[6]; APs from skipjack tuna bone,570 µg/mL
GAEGFIF [literature AP from skipjack tuna bone],EC50 on hydroxyl radical,[5]; APs from skipjack tuna bone,320 µg/mL
same,EC50 on DPPH radical,[6]; APs from skipjack tuna bone,300 µg/mL
GFEPY [literature AP from miiuy croaker swim bladder],EC50 on superoxide anion radical,[2]; [8],870 µg/mL
GFPSG [literature AP from croceine croaker scale],EC50 on superoxide anion radical,[2]; [9],151 µg/mL
same,EC50 on hydroxyl radical,[5]; [9],107 µg/mL
GFRGTIGLVG [literature AP from croceine croaker scale],EC50 on hydroxyl radical,[5]; [9],293 µg/mL
GFVG [literature AP from spotless smoothhound muscle],EC50 on ABTS cation radical,"[3]; APs from spotless smoothhound muscle, no reference given",1305.5 µg/mL
GIEWA [literature AP from miiuy croaker swim bladder],EC50 on superoxide anion radical,[2]; [8],300 µg/mL
same,EC50 on hydroxyl radical,[5]; [8],710 µg/mL
same,EC50 on DPPH radical,[6]; AP from miiuy croaker swim bladder,780 µg/mL
GIISH [literature AP from spotless smoothhound muscle],EC50 on hydroxyl radical,[5]; [7],76.9 µg/mL
GPAGPAG [literature AP from croceine croaker scale],EC50 on superoxide anion radical,[2]; [9],99 µg/mL
same,EC50 on hydroxyl radical,[5]; [9],240 µg/mL
GPDGR [literature AP from skipjack tuna bone],EC50 on superoxide anion radical,[2]; APs from skipjack tuna bone,1440 µg/mL
same,EC50 on ABTS cation radical,[3]; APs from skipjack tuna bone,1070 µg/mL
HFGBPFH [literature AP from grass carp skin],EC50 on DPPH radical,[6]; AP from grass carp skin,200 µg/mL
IVAGPQ [literature AP from skate cartilage],EC50 on ABTS cation radical,[3]; APs from skate cartilage,1290 µg/mL
KFPE [literature AP from spotless smoothhound muscle],EC50 on hydroxyl radical,[5]; [7],151 µg/mL
LGLNGDDVN [literature AP from conger eel],EC50 on hydroxyl radical,[5]; AP from conger eel,687 µg/mL
LMGQW [literature AP from monkfish muscle],EC50 on superoxide anion radical,[2]; APs from monkfish muscle,42 µg/mL
same,EC50 on hydroxyl radical,[5]; APs from monkfish muscle,40 µg/mL
"MDLFTE [TGP-3, Met-Asp-Leu-Phe-Thr-Glu]",Susceptibility to GI digestive enzymes,[1],partially susceptible to be degradated by GI digestive enzymes
MYPGLA [literature peptide from blue-spotted stingray],Change of activity during heat treatment,[4],no significant (p > 0.05) differences
same,Change of activity during pH treatment,[4],no significant (p > 0.05) differences
same,EC50 (half elimination ratio) on ABTS cation radical,[3],12880 µg/mL
NADFGLNGLEGLA [literature AP from giant squid],EC50 on hydroxyl radical,[5]; AP from giant squid,612 µg/mL
NFWWP [literature AP from miiuy croaker muscle],EC50 on superoxide anion radical,[2]; APs from miiuy croaker muscle,840 µg/mL
NWDMEKIWD [literature AP from skate muscle],EC50 on DPPH radical,[6]; AP from skate muscle,289 µg/mL
PSYV [literature AP from weatherfish loach],EC50 on hydroxyl radical,[5]; AP from weatherfish loach,2640 µg/mL
PYSFK [literature AP from grass carp skin],EC50 on hydroxyl radical,[5]; APs from grass carp skin,2283 µg/mL
VGGRP [literature AP from grass carp skin],EC50 on hydroxyl radical,[5]; APs from grass carp skin,2055 µg/mL
WAFAPA [literature peptide from blue-spotted stingray],Change of activity during heat treatment,[4],no significant (p > 0.05) differences
same,Change of activity during pH treatment,[4],no significant (p > 0.05) differences
same,EC50 (half elimination ratio) on ABTS cation radical,[3],8330 µg/mL
YFLWP [literature AP from miiuy croaker muscle],EC50 on superoxide anion radical,[2]; APs from miiuy croaker muscle,3080 µg/mL
YPPAK [literature AP from blue mussel],EC50 on DPPH radical,[6]; AP from blue mussel,2620 µg/mL
